{"source": "patent US20250034127A1", "about": "“AUTOPHAGY INDUCING COMPOUNDS AND USES THEREOF, IN PARTICULAR FOR DISEASES OF THE CNS” (Samsara Therapeutics Inc., priority 2021, published 2025)", "system": "primary culture of dopaminergic Tyrosine hydroxylase (TH)-positive neurons", "test": "Cellular model of Parkinson's disease (MPTP/MPP+ injury)", "assay_type": "cell-based, rat", "description": "This model (run by Neuro-Sys SAS, France) is based on a primary culture of dopaminergic Tyrosine hydroxylase (TH)-positive neurons injured with the dopaminergic neurons-specific toxin (DA-toxin) 1-methyl-4-phenyl-1,2,3,6 tetrahydropyridine (MPTP, a prodrug of MPP^+) (Dauer and Przedborski, 2003). Any substances reducing DA-toxin neurotoxicity may be useful as a new therapeutic agent for the treatment or prevention of PD.\nPrimary culture of mesencephalic neurons: Rat dopaminergic neurons were cultured as described by Visanji et al., 2008 and Callizot et al., 2019. Briefly, pregnant female rat (Wistar) of 15 days of gestation were killed using a deep anesthesia with CO2 chamber and a cervical dislocation. The midbrains obtained from 15-day-old rat embryos (Janvier, France) were dissected under a microscope. The embryonic midbrains will be removed and placed in ice-cold medium of Leibovitz (L15) containing 2% of Penicillin-Streptomycin (PS) and 1% of bovine serum albumin (BSA). The ventral portion of the mesencephalic flexure, a region of the developing brain rich in dopaminergic neurons, was used for the cell preparations.\nThe midbrains were dissociated by trypsinisation for 20 min at 37° C. (solution at a final concentration of 0.05% trypsin and 0.02% EDTA). The reaction was stopped by the addition of Dulbecco's modified Eagle's medium (DMEM) containing DNAase I grade II (0.5 mg/mL) and 10% of foetal calf serum (FCS). Cells were then mechanically dissociated by 3 passages through a 10 ml pipette. Cells were then centrifuged at 180×g for 10 min at +4° C. on a layer of BSA (3.5%) in L15 medium. The supernatant was discarded, and the cell pellets re-suspended in a defined culture medium consisting of Neurobasal supplemented with B27 (2%), L-glutamine (2 mM) and 2% of PS solution and 10 ng/mL of Brain-derived neurotrophic factor (BDNF) and 1 ng/ml of Glial-Derived Neurotrophic Factor (GDNF). Viable cells were counted in a Neubauer cytometer using the trypan blue exclusion test. The cells were seeded at a density of 40,000 cells/well in 96 well-plates (pre-coated with poly-L-lysine) and maintained in a humidified incubator at 37° C. in 5% CO2/95% air atmosphere. Half of the medium was changed every 2 days with fresh medium. The wells of first and last lines and columns […] (to avoid any edge effect) and were be filled with sterile water.\n• i) Pre-incubation. On day 6 of culture, the test compounds were dissolved in PBS or DMSO and incubated for 1 hour before the MPTP exposure. • ii) Injury. One hour after the application of test compound, MPTP was added to a final concentration of 4 μM, diluted in control medium still in presence of compounds/inhibitors for 48 h. Test compounds were tested on one culture in 96-well plate (n=6 culture wells per condition).\nImmunostaining: TH and α-Synuclein. 48 Hours after intoxication, the cell culture supernatant was removed, and the cells were fixed by a solution of 4% paraformaldehyde in PBS, pH=7.3 for 20 min at room temperature. The cells were washed twice in PBS, and then permeabilized. Non-specific sites were blocked with a solution of PBS containing 0.1% of saponin and 1% FCS for 15 min at room temperature. The cultures were incubated with: (a) monoclonal anti-Tyrosine Hydroxylase (TH) antibody produced in mouse at dilution of 1/10000 in PBS containing 1% FCS, 0.1% saponin, for 2 hours at room temperature, and (b) polyclonal anti-alpha synuclein (α-synuclein) antibody produced in rabbit at dilution of 1/200 in PBS containing 1% FCS, 0.1% saponin, for 2 h at room temperature.\nAutomatic computer analysis. For each condition, 20 pictures (representing the whole well area) were automatically taken using ImageXpress® (Molecular Devices) at 10× magnification (20 pictures, for TH and α-synuclein into TH neurons) using the same acquisition parameters. From images, analyses was directly and automatically performed by MetaXpress® (Molecular Devices). […]", "key": {"[1]": {"conditions": "500 nM, compared to MPP+ injury alone"}}, "data": [{"smiles": "CCN1CCC(N(C)C(=O)c2csc(-c3cnn(-c4ccccc4)c3)n2)CC1", "note": "[Compound 196, N-(1-ethylpiperidin-4-yl)-N-methyl-2-(1-phenyl-1H-pyrazol-4-yl)-1,3-thiazole-4-carboxamide]", "values": [{"measurement": "effects in the in vitro model of PD based on MPP+ injury", "value": "positive effects"}, {"measurement": "decrease in α-syn area per dopaminergic TH positive neuron", "setting": "100 nM, compared to MPP+ injury alone", "value": 26, "unit": "%"}, {"measurement": "decrease in α-syn area per dopaminergic TH positive neuron", "setting": "[1]", "value": 35, "unit": "%"}, {"measurement": "increase in the number of dopaminergic TH positive neurons", "setting": "[1]", "value": 26, "unit": "%"}, {"measurement": "decrease in α-syn area per dopaminergic TH positive neuron", "setting": "1 μM, compared to MPP+ injury alone", "value": 19, "unit": "%"}]}]}
